The test system of assay [1] is SH-SY5Y. Kind of assay: Neuroprotective activity against H2O2-induced neuronal cell death in human SH-SY5Y cells assessed as cell viability at 50 uM pretreated for 12 hrs followed by H2O2 addition measured after 3 hrs by MTT assay relative to control. In kind it is functional. Particulars: read-out: Activity. (Tetrazolium assays rely on reduction of a dye to a coloured formazan, in cell work by metabolically active cells.)

The subject of assay [2] is SH-SY5Y. The assay can be described thus: Neuroprotective activity against H2O2-induced neuronal cell death in human SH-SY5Y cells assessed as cell viability at 25 uM pretreated for 12 hrs followed by H2O2 addition measured after 3 hrs by MTT assay relative to control. In kind it is functional. Particulars: read-out: Activity.
The test system of another assay is A549. The assay can be described thus: Cytotoxicity against human A549 cells after 48 hrs by MTT assay. Particulars: A549, 48 h. In kind it is cell-based.
In the next assay the test system is HepG2. The assay can be described thus: Cytotoxicity against human HepG2 cells after 48 hrs by MTT assay. To be noted: HepG2, 48 h. In kind it is cell-based.
The nature of assay [3]: Cytotoxicity against human Hep3B cells after 48 hrs by MTT assay. Type of assay: cell-based, Hep 3B2.
The test system of another assay is Bcap37. The assay can be described thus: Cytotoxicity against human Bcap37 cells after 48 hrs by MTT assay. In kind it is cell-based. Particulars: Bcap37, 48 h.
For another assay, the system named is MCF7. Kind of assay: Cytotoxicity against human MCF7 cells after 48 hrs by MTT assay. Type of assay: cell-based. Particulars: MCF7, 48 h.
In assay [4] the test system is SH-SY5Y. Kind of assay: Neuroprotective activity against H2O2-induced neuronal cell death in human SH-SY5Y cells assessed as cell viability at 100 uM pretreated for 12 hrs followed by H2O2 addition measured after 3 hrs by MTT assay relative to control. Type of assay: functional. To be noted: read-out: Activity.

Molecules are shown by their SMILES. Where only a bound is given, the exact number is not on record here.

What is called IC50 is the point on the concentration scale where inhibition reaches its midpoint. A high value points to weaker potency. Regarding `CC1(C)CC[C@]23CO[C@@]4(C=C[C@@H]5[C@@]6(C)CC[C@H](O)[C@@](C)(CO)[C@@H]6CC[C@@]5(C)[C@]4(C)C[C@@H]2O)[C@@H]3C1`, the viability at 50 µM in the assay on SH-SY5Y [1] was found to be 74.2%. Moreover, the viability at 25 µM with SH-SY5Y [2] came out at 66.7%. The IC50 in the assay with A549 is more than 80 µM; with HepG2 it was 75.7 µM; in assay [3], more than 80 µM; in the assay on Bcap37, more than 80 µM; in the assay on MCF7 it was more than 80 µM. In addition, the viability at 100 µM in the assay with SH-SY5Y [4] is 43.5%.
Take `Cc1c(C)c2c(c(C)c1O)CCC(C)(C(=O)O)O2` (stereo not drawn) [TROLOX]: in the assay on SH-SY5Y [1], the viability at 50 µM is 73.7%. For the same molecule, in the assay on SH-SY5Y [2], the viability at 25 µM amounted to 67%. Moreover, the viability at 100 µM in the assay with SH-SY5Y [4] was 75.2%.
As to `CC1(C)CC[C@@]2(CO)C(=C3C=C[C@@H]4[C@@]5(C)CC[C@H](O)[C@@](C)(CO)[C@@H]5CC[C@@]4(C)[C@]3(C)C[C@@H]2O)C1`, the viability at 50 µM in the assay on SH-SY5Y [1] came to 79.9%. Further, the viability at 25 µM with SH-SY5Y [2] came to 81.4%. The IC50 (with A549; with HepG2; in assay [3]; with Bcap37; in the assay on MCF7) was more than 80 µM each time. In addition, the viability at 100 µM with SH-SY5Y [4] stood at 78%.
With `CC(=O)OC[C@H]1O[C@@H](O[C@H]2[C@@H](O)[C@@H](C)O[C@@H](O[C@H]3CC[C@@]4(C)[C@@H](CC[C@]5(C)[C@@H]4C=CC4=C6CC(C)(C)CC[C@]6(CO)[C@H](O)C[C@]45C)[C@]3(C)CO)[C@@H]2O)[C@H](O)[C@@H](O)[C@@H]1O`, the viability at 50 µM with SH-SY5Y [1] worked out at 7.24%. The viability at 25 µM in the assay with SH-SY5Y [2] is 14.3%. Besides, the IC50 in the assay on A549 is 69.3 µM; in the assay on HepG2 it was 21.8 µM; in assay [3] it was more than 80 µM; in the assay on Bcap37, more than 80 µM; in the assay with MCF7, 46.5 µM. The viability at 100 µM in the assay with SH-SY5Y [4] came out at 7.64%.
For the molecule `CC1(C)CC[C@]2(CO)C(=O)C[C@]3(C)C(=C2C1)C=C[C@@H]1[C@@]2(C)CC[C@H](O)[C@@](C)(CO)[C@@H]2CC[C@]13C`, the viability at 50 µM with SH-SY5Y [1] came out at 80.6%. The viability at 25 µM in the assay with SH-SY5Y [2] turned out to be 78.2%. In addition, the IC50 (with A549; in the assay on HepG2; in assay [3]; with Bcap37; with MCF7) was more than 80 µM in each case. Moreover, the viability at 100 µM in the assay on SH-SY5Y [4] came out at 77.8%.
As for `CO[C@@H]1C=C2[C@@H]3CC(C)(C)CC[C@]3(CO)[C@@H](O)C[C@@]2(C)[C@]2(C)CC[C@H]3[C@](C)(CO)[C@@H](O[C@@H]4O[C@H](C)[C@H](O)[C@H](O[C@@H]5O[C@H](CO)[C@@H](O)[C@H](O)[C@H]5O)[C@H]4O)CC[C@]3(C)[C@@H]12`, in the assay on SH-SY5Y [1], the viability at 50 µM was 8.25%. Also, the viability at 25 µM with SH-SY5Y [2] turned out to be 63.1%. Further, the IC50 in the assay with A549 is more than 80 µM; in the assay with HepG2, 27.5 µM; in assay [3], more than 80 µM; in the assay with Bcap37 it was more than 80 µM; in the assay with MCF7, 64.3 µM. In the assay with SH-SY5Y [4], the viability at 100 µM came out at 6.16%.
For the molecule `O=c1[nH]cc(F)c(=O)[nH]1` [FLUOROURACIL], the IC50 stood at 49.7 µM in the assay on HepG2, 10.5 µM in assay [3], 47.1 µM in the assay on Bcap37 and 42.8 µM in the assay with MCF7.
With `CO[C@@H]1C=C2[C@@H]3CC(C)(C)C[C@H](O)[C@]3(CO)[C@@H](O)C[C@@]2(C)[C@]2(C)CC[C@@H]3[C@](C)(CCC(=O)[C@@]3(C)CO)[C@@H]12`, in the assay with SH-SY5Y [1], the viability at 50 µM is 70.2%. Also, the viability at 25 µM in the assay on SH-SY5Y [2] turned out to be 75.6%. The IC50 with A549 was more than 80 µM; in the assay on HepG2 it was 65.9 µM; in assay [3] it was more than 80 µM; with Bcap37, more than 80 µM; with MCF7, more than 80 µM. The viability at 100 µM in the assay with SH-SY5Y [4] amounted to 67.2%.
As for `CO[C@@H]1C=C2[C@@H]3CC(C)(C)CC[C@]3(CO)[C@H](O)C[C@@]2(C)[C@]2(C)CC[C@H]3[C@](C)(CO)[C@@H](O[C@@H]4O[C@H](C)[C@H](O)[C@H](O[C@@H]5O[C@H](COC(C)=O)[C@@H](O)[C@H](O)[C@H]5O)[C@H]4O)CC[C@]3(C)[C@@H]12`, the viability at 50 µM with SH-SY5Y [1] turned out to be 7.12%. Moreover, in the assay on SH-SY5Y [2], the viability at 25 µM came out at 11.7%. Also, in the assay with SH-SY5Y [4], the viability at 100 µM is 7.16%.
As for `CO[C@@H]1C=C2[C@@H]3CC(C)(C)CC[C@]3(CO)[C@@H](O)C[C@@]2(C)[C@]2(C)CC[C@H]3C(C)(C)[C@@H](O[C@@H]4O[C@H](C)[C@H](O)[C@H](O[C@@H]5O[C@H](CO)[C@@H](O)[C@H](O)[C@H]5O)[C@H]4O)CC[C@]3(C)[C@@H]12`, the viability at 50 µM with SH-SY5Y [1] was 7.15%. Further, the viability at 25 µM with SH-SY5Y [2] stood at 64.9%. Moreover, the half-maximal inhibitory concentration (IC50) was more than 80 µM with A549; 43.2 µM with HepG2; more than 80 µM in assay [3]; more than 80 µM with Bcap37; more than 80 µM in the assay on MCF7. Also, the viability at 100 µM in the assay on SH-SY5Y [4] was determined as 6.02%.
For `CC(=O)O[C@H]1[C@H](O[C@H]2[C@@H](O)[C@@H](C)O[C@@H](O[C@H]3CC[C@@]4(C)[C@@H](CC[C@]5(C)[C@@H]4C=CC4=C6CC(C)(C)CC[C@]6(CO)[C@H](O)C[C@]45C)[C@]3(C)CO)[C@@H]2O)O[C@H](CO)[C@@H](O)[C@@H]1O`, the viability at 50 µM in the assay with SH-SY5Y [1] is 7.28%. Further, in the assay with SH-SY5Y [2], the viability at 25 µM amounted to 9.38%. In addition, the half-maximal inhibitory concentration (IC50) in the assay with A549 was 56 µM; with HepG2 it was 18.9 µM; in assay [3] it was 23 µM; with Bcap37, 23.5 µM; in the assay on MCF7, 42.2 µM. In the assay with SH-SY5Y [4], the viability at 100 µM worked out at 7.36%.
For the molecule `C[C@H]1O[C@@H](O[C@H]2CC[C@@]3(C)[C@@H](CC[C@]4(C)[C@@H]3C=CC3=C5CC(C)(C)CC[C@]5(CO)[C@H](O)C[C@]34C)[C@]2(C)CO)[C@H](O)[C@@H](O[C@@H]2O[C@H](CO)[C@@H](O)[C@H](O)[C@H]2O)[C@H]1O`, the viability at 50 µM in the assay with SH-SY5Y [1] came out at 59.5%. In addition, the viability at 25 µM with SH-SY5Y [2] is 66.9%. For the same molecule, the 50% inhibitory concentration (IC50) in the assay on A549 is more than 80 µM; with HepG2, 35.1 µM; in assay [3] it was more than 80 µM; with Bcap37, more than 80 µM; in the assay with MCF7 it was more than 80 µM. For the same molecule, the viability at 100 µM in the assay with SH-SY5Y [4] is 33.3%.
Regarding `C[C@H]1O[C@@H](O[C@H]2CC[C@@]3(C)[C@@H](CC[C@]4(C)[C@@H]3[C@H](O)C=C3[C@@H]5CC(C)(C)CC[C@]5(CO)[C@@H](O)C[C@]34C)[C@]2(C)CO)[C@H](O)[C@@H](O)[C@H]1O`, in the assay on SH-SY5Y [1], the viability at 50 µM stood at 11.4%. Moreover, the viability at 25 µM in the assay with SH-SY5Y [2] came out at 67.6%. The IC50 with A549 is 58.1 µM; with HepG2, 19.4 µM; in assay [3], 39.6 µM; in the assay with Bcap37, 20.2 µM; in the assay on MCF7, 29.4 µM. The viability at 100 µM in the assay with SH-SY5Y [4] amounted to 6.3%.
Turning to `CC1(C)CC[C@@]2(CO)C(=C3C=C[C@@H]4[C@@]5(C)CCC(=O)[C@@](C)(CO)[C@@H]5CC[C@@]4(C)[C@]3(C)C[C@H]2O)C1`, in the assay with SH-SY5Y [1], the viability at 50 µM was determined as 74.1%. Further, the viability at 25 µM with SH-SY5Y [2] was determined as 77.2%. In addition, the 50% inhibitory concentration (IC50) (with A549; with HepG2; in assay [3]; in the assay on Bcap37; in the assay on MCF7) was more than 80 µM throughout. Moreover, the viability at 100 µM in the assay on SH-SY5Y [4] was found to be 75.1%.

The record behind these values is ChEMBL document CHEMBL3792274, “Neuroprotective oleanane triterpenes from the roots of Bupleurum chinense” (Bioorg Med Chem Lett, 2016).
